Results published in patent US11427549B2, “Pyrimidinyloxy benzo-fused compounds as herbicides” (FMC Corporation, priority 2017, dated 2022).

How the values were obtained:
[1] = system: barnyardgrass (Echinochloa crus-galli); experiment: Test A preemergence, barnyardgrass; assay type: in vivo; settings: Echinochloa crus-galli, pre-emergence, 240 h, 0 to 100 scale (0 no effect, 100 complete control), read-out: Plant response rating, Barnyardgrass; for pest or weed control at 31 g/ha: 31 g ai/ha; for pest or weed control at 125 g/ha: 125 g ai/ha
kochia (Kochia scoparia) [2] = experiment: Test A preemergence, kochia; assay type: in vivo; settings: Bassia scoparia, pre-emergence, 240 h, 0 to 100 scale (0 no effect, 100 complete control), read-out: Plant response rating, Kochia; for pest or weed control at 31 g/ha: 31 g ai/ha; for pest or weed control at 125 g/ha: 125 g ai/ha
[3] = system: ragweed (common ragweed, Ambrosia elatior); experiment: Test A preemergence, ragweed; assay type: in vivo; settings: Ambrosia artemisiifolia, pre-emergence, 240 h, 0 to 100 scale (0 no effect, 100 complete control), read-out: Plant response rating, Ragweed; for pest or weed control at 125 g/ha: 125 g ai/ha; for pest or weed control at 31 g/ha: 31 g ai/ha
[4] = system: ryegrass, Italian (Italian ryegrass, Lolium multiflorum); experiment: Test A preemergence, ryegrass, Italian; assay type: in vivo; settings: Lolium multiflorum, pre-emergence, 240 h, 0 to 100 scale (0 no effect, 100 complete control), read-out: Plant response rating, Ryegrass, Italian; for pest or weed control at 31 g/ha: 31 g ai/ha; for pest or weed control at 125 g/ha: 125 g ai/ha
[5] = system: foxtail, giant (giant foxtail, Setaria faberii); experiment: Test A preemergence, foxtail, giant; assay type: in vivo; settings: Setaria faberi, pre-emergence, 240 h, 0 to 100 scale (0 no effect, 100 complete control), read-out: Plant response rating, Foxtail, Giant; for pest or weed control at 31 g/ha: 31 g ai/ha; for pest or weed control at 125 g/ha: 125 g ai/ha
[6] = system: pigweed (Amaranthus retroflexus); experiment: Test A preemergence, pigweed; assay type: in vivo; settings: Amaranthus retroflexus, pre-emergence, 240 h, 0 to 100 scale (0 no effect, 100 complete control), read-out: Plant response rating, Pigweed; for pest or weed control at 31 g/ha: 31 g ai/ha; for pest or weed control at 125 g/ha: 125 g ai/ha
[7] = system: barnyardgrass (Echinochloa crus-galli); experiment: Test A postemergence, barnyardgrass; assay type: in vivo; settings: Echinochloa crus-galli, post-emergence, 240 h, 0 to 100 scale (0 no effect, 100 complete control), read-out: Plant response rating, Barnyardgrass; for pest or weed control at 31 g/ha: 31 g ai/ha; for pest or weed control at 125 g/ha: 125 g ai/ha
kochia (Kochia scoparia) [8] = experiment: Test A postemergence, kochia; assay type: in vivo; settings: Bassia scoparia, post-emergence, 240 h, 0 to 100 scale (0 no effect, 100 complete control), read-out: Plant response rating, Kochia; for pest or weed control at 31 g/ha: 31 g ai/ha; for pest or weed control at 125 g/ha: 125 g ai/ha
[9] = system: ragweed (common ragweed, Ambrosia elatior); experiment: Test A postemergence, ragweed; assay type: in vivo; settings: Ambrosia artemisiifolia, post-emergence, 240 h, 0 to 100 scale (0 no effect, 100 complete control), read-out: Plant response rating, Ragweed; for pest or weed control at 31 g/ha: 31 g ai/ha; for pest or weed control at 125 g/ha: 125 g ai/ha
[10] = system: ryegrass, Italian (Italian ryegrass, Lolium multiflorum); experiment: Test A postemergence, ryegrass, Italian; assay type: in vivo; settings: Lolium multiflorum, post-emergence, 240 h, 0 to 100 scale (0 no effect, 100 complete control), read-out: Plant response rating, Ryegrass, Italian; for pest or weed control at 31 g/ha: 31 g ai/ha; for pest or weed control at 125 g/ha: 125 g ai/ha
[11] = system: pigweed (Amaranthus retroflexus); experiment: Test A postemergence, pigweed; assay type: in vivo; settings: Amaranthus retroflexus, post-emergence, 240 h, 0 to 100 scale (0 no effect, 100 complete control), read-out: Plant response rating, Pigweed; for pest or weed control at 31 g/ha: 31 g ai/ha; for pest or weed control at 125 g/ha: 125 g ai/ha
[12] = system: wheat (Triticum aestivum); experiment: Test A postemergence, wheat; assay type: in vivo; settings: Triticum aestivum, post-emergence, 240 h, 0 to 100 scale (0 no effect, 100 complete control), read-out: Plant response rating, Wheat; for plant injury at 31 g/ha: 31 g ai/ha; for plant injury at 125 g/ha: 125 g ai/ha
corn (Zea mays) = experiment: Test A postemergence, corn; assay type: in vivo; settings: Zea mays, post-emergence, 240 h, 0 to 100 scale (0 no effect, 100 complete control); for Corn plant response rating (crop injury, 0 = no effect, 100 = complete kill) at 31 g/ha: 31 g ai/ha; for Corn plant response rating (crop injury, 0 = no effect, 100 = complete kill) at 125 g/ha: 125 g ai/ha
[13] = system: blackgrass (Alopecurus myosuroides); experiment: Test A postemergence, blackgrass; assay type: in vivo; settings: Alopecurus myosuroides, post-emergence, 240 h, 0 to 100 scale (0 no effect, 100 complete control), read-out: Plant response rating, Blackgrass; for pest or weed control at 31 g/ha: 31 g ai/ha; for pest or weed control at 125 g/ha: 125 g ai/ha
[14] = system: galium (catchweed bedstraw, Galium aparine); experiment: Test A postemergence, galium; assay type: in vivo; settings: Galium, post-emergence, 240 h, 0 to 100 scale (0 no effect, 100 complete control), read-out: Plant response rating, Galium; for pest or weed control at 31 g/ha: 31 g ai/ha; for pest or weed control at 125 g/ha: 125 g ai/ha
rice (Oryza sativa) = experiment: Test B flooded paddy test, rice; settings: Oryza sativa, read-out: Plant response rating, Rice (0 to 100 scale, 0 is no effect, 100 is complete control)
[15] = system: ducksalad (Heteranthera limosa); experiment: Test B flooded paddy test, ducksalad; settings: Heteranthera limosa, read-out: Plant response rating, Ducksalad (0 to 100 scale, 0 is no effect, 100 is complete control)
[16] = system: barnyardgrass (Echinochloa crus-galli); experiment: Test B flooded paddy test, barnyardgrass; settings: Echinochloa crus-galli, read-out: Plant response rating, Barnyardgrass (0 to 100 scale, 0 is no effect, 100 is complete control)

Row | Structure (SMILES) | pest or weed control at 31 g/ha [1] [%] | pest or weed control at 125 g/ha [1] [%] | pest or weed control at 31 g/ha (kochia (Kochia scoparia) [2]) [%] | pest or weed control at 125 g/ha (kochia (Kochia scoparia) [2]) [%] | pest or weed control at 125 g/ha [3] [%] | pest or weed control at 31 g/ha [4] [%] | pest or weed control at 125 g/ha [4] [%] | pest or weed control at 31 g/ha [5] [%] | pest or weed control at 125 g/ha [5] [%] | pest or weed control at 31 g/ha [6] [%] | pest or weed control at 125 g/ha [6] [%] | pest or weed control at 31 g/ha [7] [%] | pest or weed control at 125 g/ha [7] [%] | pest or weed control at 31 g/ha (kochia (Kochia scoparia) [8]) [%] | pest or weed control at 125 g/ha (kochia (Kochia scoparia) [8]) [%] | pest or weed control at 31 g/ha [9] [%] | pest or weed control at 125 g/ha [9] [%] | pest or weed control at 31 g/ha [10] [%] | pest or weed control at 125 g/ha [10] [%] | pest or weed control at 31 g/ha [11] [%] | also measured
1 | O=C1c2cccc(Oc3ncc(Cl)cn3)c2C1CCC(F)(F)F (centres unmarked) [Compound 24, 2-[(5-Chloro-2-pyrimidinyl)oxy]-8-(3,3,3-trifluoropropyl)bicyclo[4.2.0]octa-1,3,5-trien-7-one] | 0 | 50 | 20 | 60 | 0 | 0 | 10 | 0 | 20 | 0 | 30 | 20 | 70 | 20 | 50 | 0 | 20 | 0 | 20 | 20 | pest or weed control at 125 g/ha [11]: 70%; plant injury at 31 g/ha [12]: 0%; plant injury at 125 g/ha [12]: 0%; Corn plant response rating (crop injury, 0 = no effect, 100 = complete kill) at 31 g/ha (corn (Zea mays)): 10%; Corn plant response rating (crop injury, 0 = no effect, 100 = complete kill) at 125 g/ha (corn (Zea mays)): 20%; pest or weed control at 31 g/ha [13]: 30%; pest or weed control at 125 g/ha [13]: 80%; pest or weed control at 31 g/ha [14]: 20%; pest or weed control at 125 g/ha [14]: 80%; plant injury at 250 g/ha (rice (Oryza sativa)): 0%; pest or weed control at 250 g/ha [15]: 90%; pest or weed control at 250 g/ha [16]: 25%
2 | O=C1Cc2cccc(Oc3ncc(Cl)cn3)c2C(CCC(F)(F)F)O1 (centres unmarked) [Compound 28, 8-[(5-Chloro-2-pyrimidinyl)oxy]-1,4-dihydro-1-(3,3,3-trifluoropropyl)-3H-2-benzopyran-3-one] | 0 | 60 | 0 | 50 | 0 | 0 | 10 | 10 | 100 | 10 | 100 | 0 | 10 | 20 | 70 | 10 | 20 | 0 | 0 | 30 | pest or weed control at 31 g/ha [3]: 0%; pest or weed control at 125 g/ha [11]: 70%; plant injury at 31 g/ha [12]: 0%; plant injury at 125 g/ha [12]: 0%; Corn plant response rating (crop injury, 0 = no effect, 100 = complete kill) at 31 g/ha (corn (Zea mays)): 10%; Corn plant response rating (crop injury, 0 = no effect, 100 = complete kill) at 125 g/ha (corn (Zea mays)): 20%; pest or weed control at 31 g/ha [13]: 10%; pest or weed control at 125 g/ha [13]: 60%; pest or weed control at 31 g/ha [14]: 20%; pest or weed control at 125 g/ha [14]: 60%; plant injury at 250 g/ha (rice (Oryza sativa)): 0%; pest or weed control at 250 g/ha [15]: 0%; pest or weed control at 250 g/ha [16]: 0%
3 | O=C1c2cccc(Oc3ncc(Cl)cn3)c2C1CCCC(F)(F)F (centres unmarked) [Compound 22, 2-[(5-Chloro-2-pyrimidinyl)oxy]-8-(4,4,4-trifluorobutyl)bicyclo[4.2.0]octa-1,3,5-trien-7-one] | 0 | 60 | 20 | 80 | 0 | 0 | 20 | 10 | 70 | 0 | 30 | 20 | 40 | 40 | 80 | 0 | 20 | 30 | 20 | 30 | pest or weed control at 31 g/ha [3]: 0%; pest or weed control at 125 g/ha [11]: 80%; plant injury at 31 g/ha [12]: 0%; plant injury at 125 g/ha [12]: 0%; Corn plant response rating (crop injury, 0 = no effect, 100 = complete kill) at 31 g/ha (corn (Zea mays)): 20%; Corn plant response rating (crop injury, 0 = no effect, 100 = complete kill) at 125 g/ha (corn (Zea mays)): 30%; pest or weed control at 31 g/ha [13]: 0%; pest or weed control at 125 g/ha [13]: 50%; pest or weed control at 31 g/ha [14]: 50%; pest or weed control at 125 g/ha [14]: 80%; plant injury at 250 g/ha (rice (Oryza sativa)): 0%; pest or weed control at 250 g/ha [15]: 80%; pest or weed control at 250 g/ha [16]: 35%
